# Legend:
# [1] = molecular target: T1, Adrenergic receptor beta (Homo sapiens) (UniProt P08588+P07550+P13945); settings: Cavia porcellus
# Description: Compound was tested for beta adrenergic receptor activity in isolated guinea pig atria
# [2] = molecular target: T1, Adrenergic receptor beta (Homo sapiens); settings: Cavia porcellus; remark: listed apart in the source
# Description: Compound was tested for beta adrenergic receptor activity in isolated guinea pig tracheal strip
# [3] = molecular target: T2, Adrenergic receptor alpha (Rattus norvegicus) (UniProt P15823+P23944+P43140+P22086+P19328+P22909); assay: Intrinsic activity against alpha-adrenoceptor in isolated rat tail artery
# [4] = molecular target: T2, Adrenergic receptor alpha (Rattus norvegicus); assay: Intrinsic activity against alpha-adrenoceptor in isolated rat vas deferens; type: tissue-based
# [5] = molecular target: T1, Adrenergic receptor beta (Homo sapiens); assay: Intrinsic activity beta adrenergic receptor in isolated guinea pig tracheal strip; settings: Cavia porcellus; target entry is the homologue from another species
# [6] = molecular target: T2, Adrenergic receptor alpha (Rattus norvegicus); settings: Artery
# Description: Compound was tested for alpha-adrenoceptor activity in isolated rat tail artery
# [7] = molecular target: T2, Adrenergic receptor alpha (Rattus norvegicus); settings: Vas deferens
# Description: Compound was tested for alpha-adrenoceptor activity in isolated rat vas deferens
# [8] = molecular target: T1, Adrenergic receptor beta (Homo sapiens); settings: Cavia porcellus; remark: listed apart in the source
# Description: Compound was tested for beta-adrenoceptor activity in isolated guinea pig atria
Compound,pD2 [1],pD2 [2],Intrinsic activity [3],Intrinsic activity [4],further results
CC(C)N1CCOC(c2ccc(O)c(O)c2)C1 (centres undefined),5.74,6.34,,,
NC1CCc2c(ccc(O)c2O)[C@H]1O (some centres undefined),6.74,7.49,,,
CC(C)N[C@@H]1CCc2c(ccc(O)c2O)[C@H]1O,7.56,8.41,,,
Oc1ccc(C2CNCCO2)cc1O (centres undefined),,,0.92,0.91,
CC(C)N1CCCC(O)(c2ccc(O)c(O)c2)C1 (centres undefined),8.14,8.26,,,
Oc1ccc(C2(O)CCCNC2)cc1O (centres undefined),,,1,0.95,Intrinsic activity [5]: 0.77
NC[C@H](O)c1ccc(O)c(O)c1,,6.04,1,1,pD2 [6]: 6.16; pD2 [7]: 4.96; pD2 [8]: 6.5

# Source: ChEMBL document CHEMBL1123455, “Conformational effects on the activity of drugs. 11. Stereostructural models for the direct activation of the alpha- and beta-adrenergic receptor” (J Med Chem, 1986)
